How the values were obtained:
LOLRI = experiment: Post-emergence herbicidal effect, greenhouse pot test; type: in vivo, Lolium rigidum; settings: for pest or weed control at 320 g/ha: Lolium rigidum, 504 h, read-out: Post-emergence effect against LOLRI in %
In short: (§1)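 Greenhouse pot test: weeds and crops sown in sandy loam, sprayed post-emergence at one-leaf stage (2–3 weeks after sowing) with WP or EC formulations plus 0.5% additive at 600 l/ha water, rates 20–320 g/ha. Visual rating about 3 weeks later versus untreated controls (100% = dead, 0% = as control).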

ABUTH = experiment: as above; type: in vivo, Abutilon theophrasti; settings: visual rating about 3 weeks after treatment; for pest or weed control at 80 g/ha / pest or weed control at 320 g/ha: Abutilon theophrasti, 504 h, read-out: Post-emergence effect against ABUTH
In short: as §1

ALOMY = experiment: as above; type: in vivo, Alopecurus myosuroides; settings: 320 g/ha, visual rating about 3 weeks after treatment
In short: as §1

SETVI = experiment: as above; type: in vivo, Setaria viridis
In short: as §1

PHBPU = experiment: as above; type: in vivo, Ipomoea purpurea
In short: as §1

AVEFA = experiment: as above; type: in vivo, Avena fatua; settings: visual rating about 3 weeks after treatment; for pest or weed control at 320 g/ha: Avena fatua, 504 h, read-out: Post-emergence effect against AVEFA
In short: as §1

ECHCG = experiment: as above; type: in vivo, Echinochloa crus-galli; settings: for pest or weed control at 80 g/ha / pest or weed control at 320 g/ha: Echinochloa crus-galli, 504 h, read-out: Post-emergence effect against ECHCG in %
In short: as §1

VERPE = experiment: as above; type: in vivo, Veronica persica; settings: for pest or weed control at 80 g/ha / pest or weed control at 320 g/ha: Veronica persica, 504 h, read-out: Post-emergence effect against VERPE in %
In short: as §1

AMARE = experiment: as above; type: in vivo, Amaranthus retroflexus; settings: visual rating about 3 weeks after treatment
In short: as §1

DIGSA = experiment: as above; type: in vivo, Digitaria sanguinalis; settings: 320 g/ha, visual rating about 3 weeks after treatment; for pest or weed control at 320 g/ha: Digitaria sanguinalis, 504 h, read-out: Post-emergence effect against DIGSA
In short: as §1

TRZAS = experiment: Post-emergence herbicidal effect and crop plant compatibility, greenhouse pot test; type: in vivo, Triticum aestivum; settings: 20 g/ha, one-leaf stage, rated visually after about 3 weeks vs untreated controls; for percent crop injury (phytotoxicity) to wheat, post-emergence at 20 g/ha: Triticum aestivum, 504 h, read-out: Post-emergence effect at 20 g/ha against TRZAS in %
In short: (§2)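 Greenhouse pot plants in sandy loam receive a one-leaf-stage spray at 20 to 320 g/ha. Activity is assessed visually around 3 weeks afterwards on a 0–100% scale, where 100% means the plants have died.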

VIOTR = experiment: Post-emergence herbicidal effect, greenhouse pot test; type: in vivo, Viola tricolor
In short: as §1

MATIN = experiment: as above; type: in vivo, Tripleurospermum inodorum; settings: for pest or weed control at 80 g/ha / pest or weed control at 320 g/ha: Tripleurospermum inodorum, 504 h, read-out: Post-emergence effect against MATIN in %
In short: as §1

POLCO = experiment: as above; type: in vivo, Fallopia convolvulus; settings: for pest or weed control at 320 g/ha: Fallopia convolvulus, 504 h, read-out: Post-emergence effect against POLCO in %
In short: as §1

ZEAMX = experiment: Post-emergence herbicidal effect and crop plant compatibility, greenhouse pot test; type: in vivo, Zea mays; settings: Zea mays, 504 h, 20 g/ha, one-leaf stage, rated visually after about 3 weeks vs untreated controls, read-out: Post-emergence effect at 20 g/ha against ZEAMX in %
In short: as §2

[1] = Setaria viridis, 504 h, 320 g/ha, read-out: Post-emergence effect against SETVI in %
[2] = Ipomoea purpurea, 504 h, 320 g/ha, read-out: Post-emergence effect against PHBPU in %
[3] = Viola tricolor, 504 h, 80 g/ha, read-out: Post-emergence effect against VIOTR in %
[4] = Viola tricolor, 504 h, 320 g/ha, read-out: Post-emergence effect against VIOTR in %

COC(=O)CCOC(=O)C(OC)Oc1nn(-c2cc(F)ccc2F)c(-c2cncc(F)c2)c1C1CC1 (single isomer, unassigned) [Example I-78]
Post-emergence effect against LOLRI in % (LOLRI; 80 g/ha): 90% | Post-emergence effect against LOLRI in % (LOLRI; 320 g/ha): 90% | Post-emergence effect against ABUTH (ABUTH; 20 g/ha): 80% | Post-emergence effect against ABUTH (ABUTH; 80 g/ha): 80% | Post-emergence effect against ABUTH (ABUTH; 320 g/ha): 80% | Post-emergence effect against ALOMY (ALOMY): 90% | Post-emergence effect against SETVI in % (SETVI; 80 g/ha): 90% | Post-emergence effect against SETVI in % (SETVI; 320 g/ha): 90% | Post-emergence effect against PHBPU in % (PHBPU; 20 g/ha): 80% | Post-emergence effect against PHBPU in % (PHBPU; 80 g/ha): 90% | Post-emergence effect against PHBPU in % (PHBPU; 320 g/ha): 90% | Post-emergence effect against AVEFA (AVEFA; 80 g/ha): 90% | Post-emergence effect against AVEFA (AVEFA; 320 g/ha): 90% | Post-emergence effect against ECHCG (ECHCG; 20 g/ha, visual rating about 3 weeks after treatment): 90% | Post-emergence effect against ECHCG in % (ECHCG; 80 g/ha): 90% | Post-emergence effect against ECHCG in % (ECHCG; 320 g/ha): 90% | Post-emergence effect against VERPE in % (VERPE; 20 g/ha): 80% | Post-emergence effect against VERPE in % (VERPE; 80 g/ha): 90% | Post-emergence effect against VERPE in % (VERPE; 320 g/ha): 90% | Post-emergence effect against AMARE (AMARE; 80 g/ha): 90% | Post-emergence effect against AMARE (AMARE; 320 g/ha): 90% | Post-emergence effect against DIGSA (DIGSA): 80% | Post-emergence effect at 20 g/ha against TRZAS in % (TRZAS): 0% | Post-emergence effect against VIOTR in % (VIOTR; 20 g/ha): 80% | Post-emergence effect against VIOTR in % (VIOTR; 80 g/ha): 90% | Post-emergence effect against VIOTR in % (VIOTR; 320 g/ha): 90% | Post-emergence effect against MATIN in % (MATIN; 20 g/ha): 80% | Post-emergence effect against MATIN in % (MATIN; 80 g/ha): 90% | Post-emergence effect against MATIN in % (MATIN; 320 g/ha): 90% | Post-emergence effect against POLCO in % (POLCO; 80 g/ha): 90% | Post-emergence effect against POLCO in % (POLCO; 320 g/ha): 90%

COC(Oc1nn(-c2cc(F)ccc2F)c(-c2cncc(F)c2)c1Br)C(=O)O (stereo not drawn) [Example I-32]
pest or weed control at 320 g/ha (LOLRI; 320 g/ha): 90% | pest or weed control at 80 g/ha (ABUTH; 80 g/ha): 80% | pest or weed control at 320 g/ha (ABUTH; 320 g/ha): 90% | plant injury at 20 g/ha (ZEAMX): 10% | pest or weed control at 320 g/ha (SETVI; [1]): 90% | pest or weed control at 320 g/ha (PHBPU; [2]): 90% | pest or weed control at 320 g/ha (AVEFA; 320 g/ha): 90% | pest or weed control at 80 g/ha (ECHCG; 80 g/ha): 90% | pest or weed control at 320 g/ha (ECHCG; 320 g/ha): 90% | pest or weed control at 80 g/ha (VERPE; 80 g/ha): 90% | pest or weed control at 320 g/ha (VERPE; 320 g/ha): 90% | pest or weed control at 320 g/ha (AMARE; Amaranthus retroflexus, 504 h, 320 g/ha, read-out: Post-emergence effect against AMARE): 80% | pest or weed control at 320 g/ha (DIGSA): 90% | percent crop injury (phytotoxicity) to wheat, post-emergence at 20 g/ha (TRZAS): 10% | pest or weed control at 80 g/ha (VIOTR; [3]): 90% | pest or weed control at 320 g/ha (VIOTR; [4]): 90% | pest or weed control at 80 g/ha (MATIN; 80 g/ha): 90% | pest or weed control at 320 g/ha (MATIN; 320 g/ha): 90% | pest or weed control at 320 g/ha (POLCO; 320 g/ha): 80%

CCOC(=O)C(OC)Oc1nn(-c2cc(F)ccc2F)c(-c2cncc(F)c2)c1Br (stereo not drawn) [Example I-33]
pest or weed control at 320 g/ha (LOLRI; 320 g/ha): 90% | pest or weed control at 80 g/ha (ABUTH; 80 g/ha): 90% | pest or weed control at 320 g/ha (ABUTH; 320 g/ha): 90% | pest or weed control at 320 g/ha (ALOMY; Alopecurus myosuroides, 504 h, read-out: Post-emergence effect against ALOMY): 90% | pest or weed control at 80 g/ha (SETVI; Setaria viridis, 504 h, 80 g/ha, read-out: Post-emergence effect against SETVI in %): 90% | pest or weed control at 320 g/ha (SETVI; [1]): 90% | pest or weed control at 20 g/ha (PHBPU; Ipomoea purpurea, 504 h, 20 g/ha, read-out: Post-emergence effect against PHBPU in %): 80% | pest or weed control at 80 g/ha (PHBPU; Ipomoea purpurea, 504 h, 80 g/ha, read-out: Post-emergence effect against PHBPU in %): 90% | pest or weed control at 320 g/ha (PHBPU; [2]): 90% | pest or weed control at 320 g/ha (AVEFA; 320 g/ha): 90% | pest or weed control at 80 g/ha (ECHCG; 80 g/ha): 80% | pest or weed control at 320 g/ha (ECHCG; 320 g/ha): 90% | pest or weed control at 80 g/ha (VERPE; 80 g/ha): 80% | pest or weed control at 320 g/ha (VERPE; 320 g/ha): 90% | pest or weed control at 320 g/ha (DIGSA): 80% | percent crop injury (phytotoxicity) to wheat, post-emergence at 20 g/ha (TRZAS): 20% | pest or weed control at 20 g/ha (VIOTR; Viola tricolor, 504 h, 20 g/ha, read-out: Post-emergence effect against VIOTR in %): 80% | pest or weed control at 80 g/ha (VIOTR; [3]): 80% | pest or weed control at 320 g/ha (VIOTR; [4]): 90% | pest or weed control at 80 g/ha (MATIN; 80 g/ha): 80% | pest or weed control at 320 g/ha (MATIN; 320 g/ha): 90% | pest or weed control at 320 g/ha (POLCO; 320 g/ha): 80%
